Measurements from PMC9947563, “Identification of the molecular determinants of antagonist potency in the allosteric binding pocket of human P2X4” (Frontiers in Pharmacology, 2023).

How the values were obtained:
human P2X4 open channel = system: human P2X4 open channel; set-up: method as in Bidula et al. (2022); details: ref Bidula et al. (2022); cited from earlier work
[1] = molecular target: T1, rat P2X4 T312I (r4-T312I) (Rattus norvegicus, UniProt P51577, T312I); experiment: ATP-induced calcium influx (Fluo-4) in 1321N1 cells stably expressing rat P2X4 T312I; format: cell-based
T1 construct: expressed in transfected cells; host or cells: 1321N1 astrocytoma cells, stably transfected
T1 sequence (P51577 1-388 T312I): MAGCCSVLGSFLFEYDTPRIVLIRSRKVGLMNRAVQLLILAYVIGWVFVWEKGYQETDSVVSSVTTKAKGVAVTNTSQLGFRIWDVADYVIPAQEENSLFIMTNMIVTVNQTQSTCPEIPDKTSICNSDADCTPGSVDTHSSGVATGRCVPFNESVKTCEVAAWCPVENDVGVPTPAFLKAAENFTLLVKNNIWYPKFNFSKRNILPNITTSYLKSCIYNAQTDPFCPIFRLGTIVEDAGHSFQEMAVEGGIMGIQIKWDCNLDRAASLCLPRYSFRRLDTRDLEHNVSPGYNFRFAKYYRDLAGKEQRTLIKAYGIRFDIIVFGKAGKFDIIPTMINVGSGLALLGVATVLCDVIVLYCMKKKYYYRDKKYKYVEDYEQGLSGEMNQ
Description: Plasmid encoding rat P2X4 (r4-WT) ([Royle et al., 2005]) was a kind gift from Ruth Murrell-Lagnado, whilst that encoding human P2X4 with a C-terminal (His)10 tag has been reported previously ([Young et al., 2008]). Plasmids containing rat P2X4 T312I (r4-T312I) and human P2X4 I312T mutants (h4-I312T) were generated using the QuikChange Lightning site-directed mutagenesis kit (Agilent) according to manufacturer’s instructions. Sequencing of the constructs and of the genomic DNA from stably transfected cells confirmed correct full coding sequences.
1321N1 astrocytoma cells were cultured (at 37°C, 5% CO2) in Dulbecco’s modified Eagle’s medium (DMEM/F-12 with Glutamax) supplemented with 10% foetal bovine serum (FBS) and 200 unit/mL of penicillin and streptomycin antibiotics (Fisher Scientific). Stably transfected clones were grown in DMEM/F-12 with Glutamax medium supplemented with G-418 (Geneticin®, Fisher Scientific), 600 μg/mL and 150 μg/mL during selection and maintenance, respectively. FuGene HD Transfection Reagent (Promega) was used according to the manufacturer’s protocol for the generation of stable cell line expressing h4-WT, r4-WT, h4-I312T, and r4-T312I. Each cell line was then tested for P2X4 receptor expression by Western blot and for functionality using the Ca^2+ influx assay.
(§1) Cells were plated the day before assay into poly-lysine-coated 96-well plates at 40–55,000 cells/mL. To load cells with calcium-sensitive fluorescent dye, culture medium was replaced with modified Ringer’s buffer (140 mM NaCl, 10 mM HEPES, 10 mM Glucose, 1 mM MgCl2, 1 mM CaCl2, 2.5 mM KCl, 0.5% BSA, pH = 7.4) containing 2.6 μM FLUO4-AM (Fisher Scientific) and 250 μM probenecid (Sigma), and cells were incubated for 20–30 min. Prior to assay, buffer was replaced with fresh modified Ringer’s buffer containing probenecid but not the dye. […] A Fluoroskan Ascent FL plate reader (Fisher Scientific) equipped with a solution dispenser and an appropriate filter pair (excitation: 485 nm, emission: 538 nm) was used to record 5-s baseline followed by P2X4-mediated calcium influx measurements for 20–25 s after ATP stimulation (final concentration ranging between 0.03 and 100 μM in buffered solution, pH = 7.4). The collected responses were normalized to the first data-point recorded after ATP injection.
Data processing and data analysis were carried out using Graphpad Prism version 6 for Mac. Figures are presented as Mean ± SEM. Statistical significance of any difference observed between samples was calculated through one-way ANOVA followed by Dunnett’s multiple comparisons test with a single pooled variance (control, unless otherwise specified) or, when comparing only two sets of data, using an unpaired t-test with Welch’s correction. When comparing data obtained from multiple independent experiments (N), each dataset was normalized to the mean value obtained for the vehicle control.

[2] = molecular target: T2, human P2X4 wild type (h4-WT) (Homo sapiens, UniProt Q99571); experiment: ATP-induced calcium influx (Fluo-4) in 1321N1 cells stably expressing human P2X4 wild type; format: cell-based; details: human vs rat P2X4
T2 construct: expressed in transfected cells; host or cells: 1321N1 astrocytoma cells, stably transfected
T2 sequence (Q99571 1-388): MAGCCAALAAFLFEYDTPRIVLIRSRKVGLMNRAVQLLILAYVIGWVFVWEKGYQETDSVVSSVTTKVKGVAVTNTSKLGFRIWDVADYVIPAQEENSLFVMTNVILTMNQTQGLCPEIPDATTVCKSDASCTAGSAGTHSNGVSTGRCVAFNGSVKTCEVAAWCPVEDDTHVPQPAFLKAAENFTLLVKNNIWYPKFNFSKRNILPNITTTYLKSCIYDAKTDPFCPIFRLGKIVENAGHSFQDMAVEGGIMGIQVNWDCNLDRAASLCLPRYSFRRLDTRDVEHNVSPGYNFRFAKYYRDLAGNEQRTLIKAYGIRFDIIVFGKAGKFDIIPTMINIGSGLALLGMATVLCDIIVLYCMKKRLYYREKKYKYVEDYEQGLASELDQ
Description: 1321N1 astrocytoma cells were cultured (at 37°C, 5% CO2) in Dulbecco’s modified Eagle’s medium (DMEM/F-12 with Glutamax) supplemented with 10% foetal bovine serum (FBS) and 200 unit/mL of penicillin and streptomycin antibiotics (Fisher Scientific). Stably transfected clones were grown in DMEM/F-12 with Glutamax medium supplemented with G-418 (Geneticin®, Fisher Scientific), 600 μg/mL and 150 μg/mL during selection and maintenance, respectively. […] Each cell line was then tested for P2X4 receptor expression by Western blot and for functionality using the Ca^2+ influx assay.
as §1, with “To load cells with calcium-sensitive fluorescent dye, culture medium was replaced with modified Ringer’s buffer (140 mM NaCl, 10 mM HEPES, 10 mM Glucose, 1 mM MgCl2, 1 mM CaCl2, 2.5 mM KCl, 0.5% BSA, pH = 7.4) containing 2.6 μM FLUO4-AM (Fisher Scientific) and 250 μM probenecid (Sigma), and cells were incubated for 20–30 min.” left out
Data processing and data analysis were carried out using Graphpad Prism version 6 for Mac. Figures are presented as Mean ± SEM. […] When comparing data obtained from multiple independent experiments (N), each dataset was normalized to the mean value obtained for the vehicle control.

rP2X4 = details: ref Ase et al. (2015); cited from earlier work

CC(C)c1cc(Br)c(NC(=O)Nc2cccnc2)c(Br)c1 [BX430]
capability of blocking the open channel (human P2X4 open channel): capable of blocking the open channel
IC50 [1]: 1390 nM
increase in BX430 potency by T312I mutation in rat P2X4 ([1]; rat P2X4 T312I vs rat P2X4 WT): approx. 47 fold
Hill coefficient (BX-430 inhibition curve) ([1]; rat P2X4 T312I, 1 µM ATP): 2.475
potency at human P2X4 compared with the rat isoform [2]: approximately 30 fold
IC50 (rP2X4): > 10000 nM
